Experimental data: EP2241565A1, “Aurora kinase inhibitors compounds” (Universität Leipzig, priority 2009, dated 2010)

How the values were obtained:
[1] = system: histone H3 phosphorylation on Ser 10; assay: Western Blot analysis of histone H3 phosphorylation in mitotic cells; type: cell-based, human; settings: mitotic HeLa cells synchronized with nocodazole, treated 20 h, any of the concentrations tested
Protocol: For Western Blot analysis of HH3 phosphorylation levels in mitosis HeLa cells were arrested with 2 mM thymidine for 18 h, released into fresh medium for 6 h, and blocked with 2 µM nocodazole for 16 h. DMSO or the different compounds were added 1 h after thymidine release. Mitotic cells were shaken off and lysed in 50 mM Tris pH 6,8- 2% SDS. Samples were sonicated and boiled. 30 µg protein extract (as determined by Bradford assay, Bio-Rad protein assay) was loaded on SDS-PAGE, transferred to a nitrocellulose membrane and blotted with anti-phospho HH3 (Upstate), anti-Aurora A and anti-tubulin antibodies (Sigma, DM1A).

[2] = molecular target: T1, Aurora A (Homo sapiens, UniProt O14965); assay: In vitro Aurora A kinase assay (Invitrogen Z'-lyte kinase assay kit, Ser/Thr 1 peptide); type: biochemical; settings: for IC50: 10 µM ATP; for selectivity for Aurora A against other kinases: versus Aurora B and receptor-tyrosine kinases
T1 construct: made in house
T1 sequence (O14965 1-403): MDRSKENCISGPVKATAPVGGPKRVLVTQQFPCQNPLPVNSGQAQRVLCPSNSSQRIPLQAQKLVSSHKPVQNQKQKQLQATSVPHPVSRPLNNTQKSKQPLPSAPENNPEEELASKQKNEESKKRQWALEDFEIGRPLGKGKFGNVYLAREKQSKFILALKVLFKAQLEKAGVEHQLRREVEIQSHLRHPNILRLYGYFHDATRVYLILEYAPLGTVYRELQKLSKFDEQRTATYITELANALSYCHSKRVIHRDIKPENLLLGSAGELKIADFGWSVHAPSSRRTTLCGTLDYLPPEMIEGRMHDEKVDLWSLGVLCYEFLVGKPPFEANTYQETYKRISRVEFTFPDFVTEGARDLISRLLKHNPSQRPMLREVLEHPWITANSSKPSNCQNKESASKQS
Protocol: The IC50 for the different compounds was determined with Invitrogen Z'-Iyte kinase assay kit Ser/Thr 1 peptide PV3174 following the manufacturer's instructions. […] This amount was then used in subsequent assay steps.
Compounds were prepared in 384-well plates (Greiner 384-well PP 781280) at a highest concentration of 400 µM (in 4% DMSO) and then serially diluted in 2-fold steps by hand, keeping the DMSO percentage constant. 1.25 µl of compound solution was subsequently transferred 1:1 to a 384-well assay plate (Greiner 384-well ProxiPlate Plus F 6008260) for screening at a highest concentration in the final assay of 100 µM (in 1% DMSO).
In the first step, 2.5 µl of a solution containing 8 nM Aurora A (batch S74, prepared in-house at EMBL) or 40 nM Aurora B (Invitrogen PV3970) and 4 µM Ser/Thr peptide 1 (Invitrogen PV3174) was added to each well, followed by 1.25 µl of the respective ATP solution (40 µM for Aurora A, 256 µM for Aurora B). The final 5 µl reaction volume consisted of 4 nM Aurora A or 20 nM Aurora B, 2 µM Ser/Thr 1 peptide, 50 mM HEPES pH 7.5, 0.01 % BRIJ-35, 10 mM MgCl2, and 1 mM EGTA, in addition to 10 µM or 64 µM ATP (for Aurora A and Aurora B, respectively). […] The plates were then spun down at 1000 rpm for 1 min, followed by incubation at rt for 1 h. In the second step, 2.5 µl of Development solution (Development A reagent diluted 1:2048 in development buffer) was added to each well, followed again by centrifugation at 1000 rpm for 1 min and subsequent incubation at rt for 1 h. In the final step, the reaction in each well was stopped by the addition of 2.5 µl Stop reagent, followed by a brief centrifugation step and immediate readout (PerkinElmer EnVision HTS; ex. 405 nm, coumarin em. 450 nm, fluorescein em. 535 nm).
Percentage phosphorylation was calculated using 0% and 100% phosphorylation controls. The former wells contained 1.25 µl DMSO (4%), 1.25 µl buffer (as above), and 2.5 µl of a 4 µM Ser/Thr 1 peptide solution (without kinase), while in the latter the peptide solution was replaced by a 4 µM solution of a supplied phosphopeptide. The action of the development reagent was assessed using protease controls (standard wells with and without development solution added in step two).
The [coumarin emission/fluorescein emission] ratio was used together with the min. and max. signals at the two wavelengths to yield percentage phosphorylation, from which inhibition was derived (according to manufacturer's instructions). Calculated inhibition values were then fitted to 11-point variable slope sigmoidal dose-response curves using GraphPad Prism software, yielding the compound IC50s.

[3] = molecular target: T2, KDR (VEGFR2) (Homo sapiens, UniProt P35968); assay: RTK-Assay (ELISA, chemiluminescence); type: biochemical; settings: read-out: IC50 KDR (VEGFR 2)
T2 construct: GST (N); purchased Biomol
T2 sequence (P35968 20-1356, species assumed): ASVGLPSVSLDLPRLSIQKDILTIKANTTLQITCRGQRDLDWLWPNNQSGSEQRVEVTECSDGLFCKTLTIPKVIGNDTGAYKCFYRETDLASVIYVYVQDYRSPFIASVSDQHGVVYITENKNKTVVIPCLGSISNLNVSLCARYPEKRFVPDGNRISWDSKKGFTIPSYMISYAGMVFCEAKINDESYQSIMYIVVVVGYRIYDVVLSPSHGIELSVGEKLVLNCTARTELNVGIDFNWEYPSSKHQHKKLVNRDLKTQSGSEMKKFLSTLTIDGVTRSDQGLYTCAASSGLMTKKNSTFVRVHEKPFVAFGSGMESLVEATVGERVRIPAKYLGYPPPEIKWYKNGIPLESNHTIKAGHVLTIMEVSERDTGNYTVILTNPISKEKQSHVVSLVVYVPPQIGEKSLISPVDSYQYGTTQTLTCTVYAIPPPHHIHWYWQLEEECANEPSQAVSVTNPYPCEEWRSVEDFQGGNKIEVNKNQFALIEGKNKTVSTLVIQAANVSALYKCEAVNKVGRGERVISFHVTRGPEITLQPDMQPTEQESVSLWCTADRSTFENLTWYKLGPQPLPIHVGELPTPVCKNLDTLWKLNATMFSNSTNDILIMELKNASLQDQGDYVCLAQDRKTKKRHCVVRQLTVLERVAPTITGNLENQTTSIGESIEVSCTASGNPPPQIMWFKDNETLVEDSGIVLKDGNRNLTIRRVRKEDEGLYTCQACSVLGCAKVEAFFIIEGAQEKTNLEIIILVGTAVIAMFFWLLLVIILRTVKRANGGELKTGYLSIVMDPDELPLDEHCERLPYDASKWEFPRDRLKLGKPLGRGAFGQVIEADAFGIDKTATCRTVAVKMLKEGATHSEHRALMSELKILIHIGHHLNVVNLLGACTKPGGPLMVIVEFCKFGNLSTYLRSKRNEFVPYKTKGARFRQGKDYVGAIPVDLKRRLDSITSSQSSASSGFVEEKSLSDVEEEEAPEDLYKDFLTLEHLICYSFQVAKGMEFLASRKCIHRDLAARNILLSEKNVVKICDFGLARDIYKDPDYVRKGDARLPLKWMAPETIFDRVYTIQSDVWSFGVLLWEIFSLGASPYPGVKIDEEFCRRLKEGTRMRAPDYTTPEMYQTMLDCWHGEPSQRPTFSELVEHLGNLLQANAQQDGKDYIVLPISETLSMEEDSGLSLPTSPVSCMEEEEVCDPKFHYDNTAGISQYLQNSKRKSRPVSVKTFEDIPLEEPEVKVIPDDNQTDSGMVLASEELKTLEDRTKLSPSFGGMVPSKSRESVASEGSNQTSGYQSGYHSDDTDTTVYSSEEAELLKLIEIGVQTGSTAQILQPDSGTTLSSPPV
Protocol: To determine the IC50 of receptor-tyrosine-kinase an assay based on the ELISA-principle using kinases from Biomol (N-terminally fused to GST), POD-coupled antibody from Calbiochem (PY20) and BM chemiluminescence ELISA substrate from Roche was followed.
In short, a white 96 wells microplate was incubated overnight with 100 µl/well of the substrate solution (poly-Glu-Tyr diluted with PBS to 100 µg/ml) at 4 °C. The solution was removed and the plate was washed twice for 2 min with PBS-T. Afterwards the kinase solution (50 µl/well)( KDR (VEGFR2), 5 ng; Flt4 (VEGFR3), 20 ng; EGFR, 5 ng; IGFR, 15 ng; FGFR, 10 ng and Tie2, 20 ng) and the inhibitor solution (25 µl/well) were added to each well. To perform positive and negative control, 5% aqueous DMSO (25 µl/well) were used instead of inhibitor solution. Addition of ATP solution (25 µl/well) started the reaction, whereas 40 mM MnCl2 solution (25 µl/well) was added to the negative control instead of ATP. After incubation under mild shaking conditions for 30 min at rt the plate was washed with PBS-T (3 x 2 min) and subsequently incubated with antibody solution (anti-Phosphotyrosine-antibody (POD-coupled) diluted 1:10.000 in PBS-T + 0,2% (m/v) BSA)(100 µl/well) for 1 h again while shaking. In the end the plate was washed with PBS-T (3x5 min) and provided with the chemiluminescence substrate (50 µl/well). After 3 min the occurring luminescence was measured using a luminometer. […] For determination of IC50 values, the relative luminescence units per second (RLU/s) were blotted against the inhibitor concentrations. In doing so each concentration measurement was done triplicate and at least 5 different inhibitor concentrations were used to determine IC50 value.
This assay is based on the ELISA-principle using kinases from Biomol (N-terminally fused to GST), POD-coupled antibody from Calbiochem (PY20) and BM chemiluminescence ELISA substrate from Roche. […]
For determination of IC50 values, the relative luminescence units per second (RLU/s) were blotted against the inhibitor concentrations. […]

SMILES | HH3-Ser10 phosphorylation [1] | IC50 [2] [nM] | selectivity for Aurora A against other kinases [2] | IC50 [3] [nM]
CC(C)Nc1nc(-c2ccco2)nc2ccc(/C=C/C(C)(C)O)cc12 [Compound (A), (E)-4-(2-(Furan-2-yl)-4-(isopropylamino)quinazolin-6-yl)-2-methylbut-3-en-2-ol] | no effect | 1930 | selective inhibition of Aurora A | –
CC(C)Nc1nc(-c2ccco2)nc2ccc(C#CCO)cc12 [Compound (C), 3-(2-(Furan-2-yl)-4-(isoiproipylamino)quinazolin-6-yl)prop-2-yn-l-ol] | no effect | 2750 | selective inhibition of Aurora A | > 100000
